Experimental data reported in patent US20130245110A1, “USE FOR CANNABINOIDS” (priority 2008, published 2013).
Values joined by “and” are separate entries in the source; they are usually repeats but may differ in a detail not shown here. Identical values can stand only once.

What was measured:
C57B1/6 ob/ob mouse = assay: Liver triglyceride; format: in vivo; settings: ob/ob mice, at termination, individual values
Method: Blood samples were also taken at −30 minutes for insulin analysis. • e) Blood Glucose analysis: Duplicate 20 μl samples of blood of were taken for each individual sample and placed in a 96-well assay plate. To each well was added 180 μl aliquots of glucose oxidase reagent. Samples were mixed and then left for approximately 30 minutes. Samples were then analysed automatically using a SpectraMax-250 and SoftMax Pro software. • f) Plasma preparation: Blood was collected for the measurement of i) plasma insulin, ii) cholesterol, iii) free fatty acids or iv) triglyceride concentration. • i. Plasma insulin analysis: Plasma insulin was measured using 5 μl of plasma, compared with a mouse insulin standard using a 96-well micro-assay plate • ii. Plasma cholesterol analysis: To each sample was added 200 μl of infinity cholesterol liquid stable reagent. The samples were mixed and incubated for 5 minutes before reading at dual wavelengths of 500 and 660 nm. • iii. Plasma free fatty acids: 5 μl samples of plasma were measured into a 96-well assay plate, to which was added 0.2 ml of reagents NEFA C • iv. […] Dedicated software was using to quantify amounts of bone and fat. The mice were lightly anaesthetised, sufficient to keep them quiescent during this non-invasive technique. • h) Energy expenditure measurements: Energy expenditure was measured by open circuit indirect calorimetry with mice in their home cages. […] Plasma leptin was measured in fed mice using the Crystal Chem Elisa assay. • j) Plasma adiponectin: Adiponectin exerts some of its weight reduction effects via the brain. […] Plasma adiponectin was measured in overnight fasted mice using the 96-well B-Bridge Elisa assay. • k) Plasma HDL-cholesterol: Plasma HDL-cholesterol was measured in fed mice using the kit from Trinity Biotech. • l) 24 h blood glucose profile: This was determined in order to ensure that changes in the diurnal control of blood glucose were detected. Thus blood samples were obtained at three hourly intervals throughout a continuous 24 h period. • m) Plasma haemoglobin AIC: Samples (10 μl) were analysed using the AIC. […]

[1] = test system: dietary induced obese (DIO) mouse model; assay: Thermic response to food (energy expenditure after Complan meal), chronic dosing study; format: in vivo; set-up: Thermic response to food: unit not given here; settings: for Thermic response to food: listed as pure THCV
Description: Once the acute studies were complete the mice were grouped in two groups of five mice for the chronic dosing study. Dosing was daily by oral gavage at 09:00-10:00.
Energy expenditure consists of basal metabolic rate, exercise-induced energy expenditure, and non-exercise thermogenesis. The latter is the most likely area to be affected by anti-obesity agents. Non-exercise thermogenesis includes the thermic response to food, which in rodents can be measured by examining energy expenditure in response to a meal. This was measured after an oral dose of complan (see methods).

3T3L1 cells = assay: Induction of adipocyte differentiation (Oil red O); format: cell-based; settings: treated for 8 days
Method: In vitro vascular studies were carried out in rat isolated aortae by wire myography. PPARγ activation was investigated using reporter gene assays, a PPARγ competition-binding assay and an adipogenesis assay.
Cells were fixed and stained with Oil red O to identify fat droplets, to the presence of which indicates differentiation of fibroblasts into adipocytes. […] […].

CCCc1cc(O)c2c(c1)OC(C)(C)[C@@H]1CCC(C)=C[C@@H]21 [THCV, tetrahydrocannabivarin]
Liver triglycerides concentration (C57B1/6 ob/ob mouse; 0.3 mg·kg−1 daily oral gavage (combination: both 0.3)): 17.16 and 11.16 and 14.94 and 15.48 and 9.10 and 16.72 and 9.33 and 14.97
Liver triglycerides concentration (C57B1/6 ob/ob mouse; 0.3 mg·kg−1 daily oral gavage (combination: both 0.3), listed as pure THCV): increased
Liver triglycerides concentration (C57B1/6 ob/ob mouse; 3.0 mg·kg−1 daily oral gavage (combination: both 3.0)): 8.70 and 15.20 and 10.77 and 9.78 and 12.06 and 13.92 and 18.27 and 14.09
Thermic response to food ([1]; DIO mice, days 15-17, 0.3 mg·kg−1 p.o., Hour 0.22): 0.67 and 0.91 and 1.26
Thermic response to food ([1]; DIO mice, days 15-17, 0.3 mg·kg−1 p.o., Hour 0.44): 1.78 and 1.70 and 1.98
Thermic response to food ([1]; DIO mice, days 15-17, 0.3 mg·kg−1 p.o., Hour 0.67): 2.30 and 2.06 and 2.49
Thermic response to food ([1]; DIO mice, days 15-17, 0.3 mg·kg−1 p.o., Hour 0.89): 2.51 and 2.42
Thermic response to food ([1]; DIO mice, days 15-17, 0.3 mg·kg−1 p.o., Hour 1.11): 2.51 and 2.74 and 2.64
Thermic response to food ([1]; DIO mice, days 15-17, 0.3 mg·kg−1 p.o., Hour 1.33): 2.50 and 2.82 and 2.67
Thermic response to food ([1]; DIO mice, days 15-17, 0.3 mg·kg−1 p.o., Hour 1.56): 2.53 and 2.81 and 3.13
Thermic response to food ([1]; DIO mice, days 15-17, 0.3 mg·kg−1 p.o., Hour 1.78): 2.54 and 2.76 and 3.31
Thermic response to food ([1]; DIO mice, days 15-17, 0.3 mg·kg−1 p.o., Hour 2.00): 2.45 and 2.62 and 3.18
Thermic response to food ([1]; DIO mice, days 15-17, 0.3 mg·kg−1 p.o., Hour 2.22): 2.61 and 2.74 and 3.44
Thermic response to food ([1]; DIO mice, days 15-17, 0.3 mg·kg−1 p.o., Hour 2.44): 2.71 and 2.74 and 3.18
Thermic response to food ([1]; DIO mice, days 15-17, 0.3 mg·kg−1 p.o., Hour 2.67): 2.66 and 2.83 and 3.10
Thermic response to food ([1]; DIO mice, days 15-17, 0.3 mg·kg−1 p.o., Hour 2.89): 2.71 and 3.01 and 3.09
Thermic response to food ([1]; DIO mice, days 15-17, 0.3 mg·kg−1 p.o., Hour 3.11): 2.68 and 3.16 and 3.02
Thermic response to food ([1]; DIO mice, days 15-17, 0.3 mg·kg−1 p.o., Hour 3.33): 2.68 and 3.34 and 3.04
Thermic response to food ([1]; DIO mice, days 15-17, 0.3 mg·kg−1 p.o., Hour 4.00): 2.70 and 3.49 and 3.13
Thermic response to food, effect in words ([1]; DIO mice, days 15-17, chronic-study doses (rimonabant 10, pure THCV 0.3 mg·kg−1 p.o.)): have an affect over 2 h
Thermic response to food ([1]; mouse, in vivo, po): 2.61 and 3.49 and 3.02 and 2.43 and 3.48 and 3.03

C=C(C)[C@@H]1CCC(C)=C[C@H]1c1c(O)cc(CCCCC)cc1O [CBD, cannabidiol]
Differentiation of fibroblasts into adipocytes (Oil Red O staining of fat droplets) (3T3L1 cells): signs of fat droplet accumulation were apparent at all concentrations tested
